Reference: patent US10525055B2, “Opioid receptor antagonist prodrugs” (Nirsum Laboratories, Inc., priority 2017, dated 2020)

Assays:
[1] = Dog pharmacokinetic studies, deep intramuscular; format: in vivo, Beagle dogs; conditions: dog IM, 48 mg/kg, Sesame oil + 1% Benzyl Alcohol
Description: The purpose of this study is to determine the pharmacokinetics of test compounds in plasma, following deep intramuscular administration to Beagle dogs (n=3, unless otherwise specified).
(§1) The dose formulation (concentration−400 mg base equivalents/ml in sesame oil+1% benzyl alcohol, unless otherwise specified) was administered via deep intramuscularly (unless otherwise specified). The injection vehicle was also dosed via deep intramuscular route (unless otherwise specified) on contralateral site of each animal at study initiation. The animals were sedated with Propofol at 6 mg/kg via IV administration. Following sedation hair was carefully removed from around the injection site and the area gently cleaned. Care will be taken to avoid irritating skin during shaving and cleaning the injection site. Then dogs will be dosed with deep IM administration. At least 2.5 cm depth from the surface into the central aspect of the quadriceps or biceps femoris muscle, by angling the needle toward the femur. If the needle hits the femur, simply draws back slightly and then inject. The dose volume will be determined by the animals' body weight collected on the morning of dosing day. For repeated administration, the injection sites may be rotated to minimize tissue injury.
Blood samples were collected from a peripheral vessel from restrained, non-sedated animals per sampling time point.
Approximately 0.8 mL blood will be collected at each time point.
(§2) Each collected blood sample was centrifuged for 4 minutes at 4° C. and 10000 rpm for plasma collection. Plasma was collected and transferred into a pre-labeled PP tube in dry ice at each time point and precipitated immediately using ACN at a ratio of 1:4 (plasma:ACN). Centrifuged again (10 minutes, 12000 rpm) and obtain the supernatant.
After terminal collection, all supernatant was stored at approximately −80° C. F until bioanalysis.
(§3) LC-MS/MS methods for the quantitative determination of test compound in biological matrix were developed. […] The sample analysis was performed concurrently with a set of calibration standards and two sets of QC samples using the LC-MS/MS method.
(§4) Plasma concentration versus time data was analyzed by non-compartmental approaches using the Phoenix WinNonlin 6.3 software program. Cmax, Tmax, T1/2, AUC(0-t), AUC(0-inf), MRT(0-t), MRT(0-inf) and graphs of plasma concentration versus time profile were prepared.

[2] = Solubility determination in oil (cottonseed oil, sesame oil); conditions: heating temp. 60 °C, obs. temp. 25 °C
Description: A known amount of test substance (˜40 mg) was weighed into the vial, 100 μL of oil was added and heated to 60° C. and then system was slurried to reach equilibrium. […] Extra oil was added into the vial once compound precipitated out and then the system was re-equilibrated at 1000 rpm at room temperature (25° C.). Final concentration was determined by HPLC method as described below in Table 6a and 6b.

[3] = Plasma stability assay, rat plasma; format: in vitro ADME; conditions: 37° C., 10 μM
Description: Plasma stability determination of the test compounds in rat, dog, cynomolgus monkey and human plasma is performed using HPLC-MS. For rat, incubations are carried out in 96-well polypropylene plates in 5 aliquots of 70 μL each (one for each time point). […] Five time points are analyzed (0, 15, 120, 480 and 1440 min). For dog, monkey and human, test compounds (2 μM, final solvent concentration 1%) were also incubated at 37° C. and analyzed at five time points (0, 10, 30, 60 and 120 min). All incubations are performed in duplicates. The samples are analyzed by HPLC-MS. The percentage of parent compound remaining after incubation in plasma is determined.

[4] = Dog clinical observations after intramuscular dosing; format: in vivo, Beagle dogs; conditions: dog D1502, compound 18 at 48 mg/kg; earlier weight, reported at 96 hr
Description: Weight monitoring was done every week.
as §1

[5] = Rat pharmacokinetic studies, intramuscular; format: in vivo, male Sprague Dawley Rats; conditions: for Mean conc Nalmefene: rat plasma, IM, 86 mg/ml at 17 mg/kg
Description: The purpose of this study is to determine the pharmacokinetics of test compounds in plasma, following intramuscular administration to male Sprague Dawley Rats (n=3, unless otherwise specified).
The dose formulation of 400 mg base equivalents/ml in sesame oil+1% benzyl alcohol (unless otherwise specified) was administered by intramuscular injection. The dose volume was determined by the animals' body weight determined on the morning of dosing day.
as §2
After terminal collection, all supernatant was stored at approximately −80° C. until bioanalysis.
as §3, §4

[6] = rat IM, 17 mg/kg, Sesame oil + 1% Benzyl Alcohol

Compound | Approximate Solubility (mg/mL) in Excipient: Sesame oil [2] [mg/mL] | % remaining at time point in minutes, 0 min [3] [%] | % remaining at time point in minutes, 15 min [3] [%] | % remaining at time point in minutes, 120 min [3] [%] | % remaining at time point in minutes, 480 min [3] [%] | % remaining at time point in minutes, 1440 min [3] [%] | further results
C=C1CC[C@@]2(O)C3Cc4ccc(OCOC(=O)OCCCCCCCC/C=C/CCCCCCCC)c5c4[C@@]2(CCN3CC2CC2)[C@H]1O5 [Compound 1, (((4aS,7aS,12bS)-3-(cyclopropylmethyl)-4a-hydroxy-7-methylene-2,3,4,4a,5,6,7,7a-octahydro-1H-4,12-methanobenzofuro[3,2-e]isoquinolin-9-yl)oxy)methyl ((E)-octadec-9-en-1-yl) carbonate] | – | – | – | – | – | – | AUC0-inf (ng · h/mL) prodrug [1]: 1040 ng·h/mL; Half-life t1/2 (hour) prodrug [1]: 261 h
CCCCCCCC/C=C/CCCCCCCCOC(=O)OCOc1ccc2c3c1O[C@H]1C(=O)CC[C@@]4(O)C(C2)N(CC2CC2)CC[C@]314 [Compound 7, (((4aS,7aR,12bS)-3-(cyclopropylmethyl)-4a-hydroxy-7-oxo-2,3,4,4a,5,6,7,7a-octahydro-1H-4,12-methanobenzofuro[3,2-e]isoquinolin-9-yl)oxy)methyl ((E)-octadec-9-en-1-yl) carbonate] | – | – | – | – | – | – | AUC0-inf (ng · h/mL) prodrug [1]: 610 ng·h/mL
C=C1CC[C@@]2(O)C3Cc4ccc(OC(=O)OCCCCCCCCCC)c5c4[C@@]2(CCN3CC2CC2)[C@H]1O5 [Compound 18, (4aS,7aS,12bS)-3-(cyclopropylmethyl)-4a-hydroxy-7-methylene-2,3,4,4a,5,6,7,7a-octahydro-1H-4,12-methanobenzofuro[3,2-e]isoquinolin-9-yl decyl carbonate] | >402 | 100 | 0.6 | 0.3 | 0.1 | 0 | Approximate Solubility (mg/mL) in Excipient: Cottonseed oil ([2]; Cottonseed oil): >400 mg/mL; weight decreases from (earlier weight), D1502 [4]: 7.76 kg
CCCCCCCCCCCCOC(=O)OCOc1ccc2c3c1O[C@H]1C(=O)CC[C@@]4(O)C(C2)N(CC2CC2)CC[C@]314 [Compound 29, (((4aS,7aR,12bS)-3-(cyclopropylmethyl)-4a-hydroxy-7-oxo-2,3,4,4a,5,6,7,7a-octahydro-1H-4,12-methanobenzofuro[3,2-e]isoquinolin-9-yl)oxy)methyl dodecyl carbonate] | >416.5 | – | – | – | – | – | AUC0-inf (ng · h/mL) prodrug ([5]; rat IM, 165 mg/kg, Sesame oil + 1% Benzyl Alcohol): 74.8 ng·h/mL
CCCCCCCCCCCCCCCCCC(=O)Oc1ccc2c3c1O[C@H]1C(=O)CC[C@@]4(O)C(C2)N(CC2CC2)CC[C@]314 [Compound 54, (4aS,7aR,12bS)-3-(cyclopropylmethyl)-4a-hydroxy-7-oxo-2,3,4,4a,5,6,7,7a-octahydro-1H-4,12-methanobenzofuro[3,2-e]isoquinolin-9-yl stearate] | <50 | 100 | 98.8 | 62.4 | 45.6 | 19.4 | –
CCCCCCCCCCCCCC(=O)Oc1ccc2c3c1O[C@H]1C(=O)CC[C@@]4(O)C(C2)N(CC2CC2)CC[C@]314 [Compound 57, (4aS,7aR,12bS)-3-(cyclopropylmethyl)-4a-hydroxy-7-oxo-2,3,4,4a,5,6,7,7a-octahydro-1H-4,12-methanobenzofuro[3,2-e]isoquinolin-9-yl tetradecanoate] | >417.3 | 100 | 10.5 | 3.2 | 1.2 | 0 | –
CCCCCCCCCCCCCCC(=O)Oc1ccc2c3c1O[C@H]1C(=O)CC[C@@]4(O)C(C2)N(CC2CC2)CC[C@]314 [Compound 58, (4aS,7aR,12bS)-3-(cyclopropylmethyl)-4a-hydroxy-7-oxo-2,3,4,4a,5,6,7,7a-octahydro-1H-4,12-methanobenzofuro[3,2-e]isoquinolin-9-yl pentadecanoate] | 99.4 to 198.8 | 100 | 37 | 20 | 2.9 | 1.8 | –
C=C1CC[C@@]2(O)C3Cc4ccc(OC(=O)CCCCCCCCCCC)c5c4[C@@]2(CCN3CC2CC2)[C@H]1O5 [Compound 59, (4aS,7aS,12bS)-3-(cyclopropylmethyl)-4a-hydroxy-7-methylene-2,3,4,4a,5,6,7,7a-octahydro-1H-4,12-methanobenzofuro(3,2-c]isoquinolin-9-yl dodecanoate, reference compound] | – | 100 | 5.9 | 0.7 | 0.2 | 0 | AUC0-inf (ng · h/mL) nalmefene [5, 6]: 1026 ng·h/mL; AUC0-inf (ng · h/mL) prodrug [5, 6]: 10.4 ng·h/mL; Half-life t1/2 (hour) prodrug [5, 6]: 15.2 h; Terminal Half-life t1/2 (hour) nalmefene [5, 6]: 248 h; Mean conc Nalmefene ([5]; 1.00 h): 7.85 ng/mL; Mean conc Nalmefene ([5]; 2.00 h): 8.10 ng/mL; Mean conc Nalmefene ([5]; 4.00 h): 7.45 ng/mL; Mean conc Nalmefene ([5]; 8.00 h): 6.85 ng/mL; Mean conc Nalmefene ([5]; 24.0 h): 6.96 ng/mL; Mean conc Nalmefene ([5]; 48.0 h): 7.92 ng/mL; Mean conc Nalmefene ([5]; 72.0 h): 5.77 ng/mL; Mean conc Nalmefene ([5]; 144 h): 1.59 ng/mL; Mean conc Nalmefene ([5]; 312 h): 0.403 ng/mL; Mean conc Nalmefene ([5]; 480 h): 0.235 ng/mL; Mean conc Nalmefene ([5]; 648 h): 0.145 ng/mL
C=C1CC[C@@]2(O)[C@H]3Cc4ccc(O)c5c4[C@@]2(CCN3CC2CC2)[C@H]1O5.Cl [Nalmefene HCl-IR] | – | – | – | – | – | – | AUC0-inf (ng · h/mL) nalmefene ([5]; rat, 0.80 mg/kg, saline): 66.0 ng·h/mL; Terminal Half-life t1/2 (hour) nalmefene ([5]; rat, 0.80 mg/kg, saline): 0.87 h
